Assay results taken from ChEMBL document CHEMBL1142824, “Discovery of a novel, potent and selective human beta3-adrenergic receptor agonist” (Bioorg Med Chem Lett, 2005).

Columns and labels:
[1] = biological target: Beta-1 adrenergic receptor (Homo sapiens, UniProt P08588)
Description: Agonistic activity was assessed by measuring cAMP accumulation in CHO cell lines expressing cloned human Beta-1 adrenergic receptor

[2] = biological target: Beta-3 adrenergic receptor (Homo sapiens, UniProt P13945); assay: Agonistic activity was assessed by measuring cAMP accumulation in CHO cell lines expressing cloned human Beta-3 adrenergic receptor; type: functional, cell-based
Beta-3 adrenergic receptor, sequence (P13945 whole entry): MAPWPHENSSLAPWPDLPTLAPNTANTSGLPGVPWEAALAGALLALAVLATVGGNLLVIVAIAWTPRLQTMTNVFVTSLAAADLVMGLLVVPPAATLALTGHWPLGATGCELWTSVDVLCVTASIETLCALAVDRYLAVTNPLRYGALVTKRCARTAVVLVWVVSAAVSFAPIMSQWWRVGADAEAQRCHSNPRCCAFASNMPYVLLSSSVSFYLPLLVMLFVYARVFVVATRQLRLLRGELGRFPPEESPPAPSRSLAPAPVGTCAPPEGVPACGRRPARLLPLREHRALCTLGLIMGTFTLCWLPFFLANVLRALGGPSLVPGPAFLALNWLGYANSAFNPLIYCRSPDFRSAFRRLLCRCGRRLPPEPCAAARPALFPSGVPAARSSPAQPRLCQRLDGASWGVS

[3] = Maximum plasma concentration after orally administered dose of 0.32 mg/kg; type: ADME, organism-based, Canis lupus familiaris; parameters: dose 0.32 mg/kg, route oral; conditions: dog, po
[4] = Total clearance rate after intravenous dose of 1 mg/kg; type: ADME, organism-based; parameters: dose 1 mg/kg, route intravenous; conditions: rat, in vivo, read-out: CLtot
[5] = Half life of compound after intravenous dose of 0.32 mg/kg; type: ADME, organism-based, Canis lupus familiaris; parameters: dose 0.32 mg/kg, route intravenous; conditions: dog, in vivo
[6] = Percent bioavailability after intravenous dose of 1 mg/kg; type: ADME, organism-based; conditions: rat, in vivo
[7] = Percent bioavailability after intravenous dose of 0.32 mg/kg; type: ADME, organism-based, Canis lupus familiaris; conditions: dog, in vivo
[8] = Maximum plasma concentration after orally administered dose of 3.2 mg/kg; type: ADME, organism-based; parameters: dose 3.2 mg/kg, route oral; conditions: rat, po
[9] = Total clearance rate after intravenous dose of 0.32 mg/kg; type: ADME, organism-based, Canis lupus familiaris; parameters: dose 0.32 mg/kg, route intravenous; conditions: dog, in vivo, read-out: CLtot
[10] = Half life of compound after intravenous dose of 1 mg/kg; type: ADME, organism-based; parameters: dose 1 mg/kg, route intravenous; conditions: rat, in vivo
[11] = Area under concentration-time curve after orally administered dose of 3.2 mg/kg; type: ADME, organism-based; parameters: dose 3.2 mg/kg, route oral; conditions: rat, in vivo, po
[12] = biological target: Beta-2 adrenergic receptor and beta-3 adrenergic receptor (Homo sapiens) (UniProt P07550+P13945); assay: Ratio of agonistic activity to produce cAMP by stimulating beta-2 and beta-3 adrenergic receptor in chinese hamster ovary cells; type: functional, cell-based
[13] = Area under concentration-time curve after orally administered dose of 0.32 mg/kg; type: ADME, organism-based, Canis lupus familiaris; parameters: dose 0.32 mg/kg, route oral; conditions: dog, in vivo, po
[14] = biological target: Beta-2 adrenergic receptor (Homo sapiens, UniProt P07550); assay: Agonistic activity was assessed by measuring cAMP accumulation in CHO cell lines expressing cloned human Beta-2 adrenergic receptor; type: functional, cell-based
Beta-2 adrenergic receptor, sequence (P07550 whole entry): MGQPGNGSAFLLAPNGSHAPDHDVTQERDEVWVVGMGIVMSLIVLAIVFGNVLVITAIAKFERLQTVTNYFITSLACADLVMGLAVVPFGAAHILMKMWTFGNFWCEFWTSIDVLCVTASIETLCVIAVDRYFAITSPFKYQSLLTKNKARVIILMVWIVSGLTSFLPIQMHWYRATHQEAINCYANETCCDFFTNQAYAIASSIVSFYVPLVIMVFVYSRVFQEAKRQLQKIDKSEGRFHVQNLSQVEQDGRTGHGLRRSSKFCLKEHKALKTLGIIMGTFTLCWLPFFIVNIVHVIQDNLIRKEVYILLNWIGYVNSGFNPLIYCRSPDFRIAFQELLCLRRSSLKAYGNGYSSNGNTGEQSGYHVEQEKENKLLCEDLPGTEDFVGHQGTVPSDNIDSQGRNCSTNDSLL

Beta-1 adrenergic receptor, sequence (P08588 whole entry): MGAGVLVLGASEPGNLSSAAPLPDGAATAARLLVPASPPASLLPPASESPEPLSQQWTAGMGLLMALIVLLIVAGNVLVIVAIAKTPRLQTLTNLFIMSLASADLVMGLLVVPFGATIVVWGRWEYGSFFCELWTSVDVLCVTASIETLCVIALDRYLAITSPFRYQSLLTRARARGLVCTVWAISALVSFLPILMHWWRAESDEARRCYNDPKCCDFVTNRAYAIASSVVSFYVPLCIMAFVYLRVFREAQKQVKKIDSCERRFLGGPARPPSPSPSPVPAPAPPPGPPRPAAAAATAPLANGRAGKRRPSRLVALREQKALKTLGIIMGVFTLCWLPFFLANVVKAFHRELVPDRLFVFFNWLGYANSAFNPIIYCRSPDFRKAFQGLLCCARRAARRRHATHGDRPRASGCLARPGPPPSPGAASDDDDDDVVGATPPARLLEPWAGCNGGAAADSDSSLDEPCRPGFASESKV

SMILES | EC50 [1] [nM] | EC50 [2] [nM] | further results
O=C(Nc1ccccc1)Nc1ccc(CCNC[C@H](O)COc2ccccc2)cc1 | 3.6 | 1.6 | –
COc1ccccc1NC(=O)Nc1ccc(C[C@@H](CO)NC[C@H](O)COc2ccccc2)cc1 | 12 | 1.1 | –
O=C(Nc1ccc(C[C@@H](CO)NC[C@H](O)COc2ccccc2)cc1)NC1CCCCC1 | 15 | 2.1 | –
COc1cccc(NC(=O)Nc2ccc(C[C@@H](CO)NC[C@H](O)COc3ccccc3)cc2)c1 | 4 | 0.8 | –
O=C(Nc1ccccc1)Nc1ccc(C[C@@H](CO)NC[C@H](O)COc2cccc3[nH]c4ccccc4c23)cc1 | – | 22 | –
COc1ccc(NC(=O)Nc2ccc(C[C@@H](CO)NC[C@H](O)COc3ccccc3)cc2)cc1 | 2.2 | 2.5 | –
O=C(Nc1ccc(C[C@@H](CO)NC[C@H](O)COc2ccccc2)cc1)Nc1cccc(C(=O)O)c1 | 1.3 | 1.5 | –
O=C(Nc1ccc(C[C@@H](CO)NC[C@H](O)COc2ccccc2)cc1)Nc1cccc([N+](=O)[O-])c1 | 0.9 | 1 | –
O=C(Nc1ccccc1)Nc1ccc(C[C@@H](CO)NC[C@H](O)COc2ccccc2)cc1 | 20 | 0.5 | Cmax [3]: 52.6 ng/mL; clearance [4]: 142 mL/min/kg; half-life [5]: 8.1 h; bioavailability [6]: 1.1%; bioavailability [7]: 20.3%; Cmax [8]: 4.2 ng/mL; clearance [9]: 24.2 mL/min/kg; T1/2 [10]: 1.3 h; AUC [11]: 4.2 ng·h/mL; Selectivity [12]: > 200; AUC [13]: 140 ng·h/mL; EC50 [14]: > 100 nM
O=C(Nc1ccccc1)Nc1ccc(C[C@@H](CO)NC[C@H](O)c2cccc(Cl)c2)cc1 | – | 74 | –
CC(C)NC(=O)Nc1ccc(C[C@@H](CO)NC[C@H](O)COc2ccccc2)cc1 | 27 | 4.9 | –
CCCNC(=O)Nc1ccc(C[C@@H](CO)NC[C@H](O)COc2ccccc2)cc1 | 51 | 8.3 | –
